These results are taken from US9845323B2, “2-(1,3,4-oxadiazol-2-yl)-7-oxo-1,6-diazabicyclo[3.2.1 ]octane derivatives and their use as antibacterial agents” (WOCKHARDT LIMITED, priority 2014, dated 2017).

SMILES strings stand for the structures. Converted amounts (≈) assume the structure as drawn. Read-outs that look alike come from different tables or passages of the source. Bounds are passed on as bounds.

One test concerns K. pneumoniae H521. Description: Agar dilution MIC of Ceftazidime, alone or with fixed 4 μg/ml compound. In kind it is cell-based. Here is the method:
(§1) Agar dilution MIC was carried out in Muller Hinton Agar (Difco, USA) according to the recommendations of CLSI (M07-A9). In short, the plates were poured with a range of doubling increasing concentration of Ceftazidime and fixed 4 μg/ml compound according to invention containing MHA. The freshly overnight grown cultures were diluted in physiological saline to deliver per spot 10^4 CFU. The plates were inoculated with a multipoint inoculator (Mast, UK) and incubated at 35° C. for 18 hours. […] Table-5 provides the result of combination MIC results.

Test [1] deals with E. coli M 50. Described as above. In kind it is cell-based. The method, then:
as §1

The test system of another test is Citrobactor spp 58 MP. The test is described as above. In kind it is cell-based. The method, then: as §1
The subject of test [2] is K. pneumoniae ATCC 700606. The description is as above. In kind it is cell-based. Here is the method: as §1
The next test deals with E. coli NCTC 13353. The description is as above. The class given is cell-based. The method, then:
as §1

In test [3] the test system is K. Pneomoniae S48 (NDM, SHV, TEM). The experiment in a line: Agar dilution MIC (CLSI), compound alone. In kind it is cell-based, K. pneumoniae. Here is the method: (§2) The biological activity of representative compounds according to the invention against various bacterial strains was investigated. In a typical study, overnight grown bacterial cultures were diluted appropriately and inoculated on the agar media containing doubling dilutions of the test compounds. Observations for growth or no growth was performed after 16-20 hours of incubation at 35±2° C. in the ambient air. The overall procedure was performed as per Clinical and Laboratory Standards Institute (CLSI) recommendations, (Clinical and Laboratory Standards Institute (CLSI), Performance Standards for Antimicrobial Susceptibility Testing, 20th Informational Supplement, M 07-A9, Volume 32, No. 2, 2012). Molten Mueller Hinton Agar (BD, USA) containing serial dilutions of each antibacterial agent were poured on to the plates and allowed to solidify. Appropriate suspensions from the freshly grown cultures were prepared in normal saline so that about 10^4 CFU/spot of the organism was delivered on to the drug containing agar plates using automated multipoint inoculator (Mast, UK). The plates were incubated in Biochemical oxygen demand (BOD) incubator at 37° C. for 18 hours and then examined for growth.
A general note: In agar dilution the substance is mixed into plates at graded concentrations.

The subject of test [4] is Class C beta-lactamase CMY/DHA (E. coli M50). The experiment in a line: Beta-lactamase enzyme inhibition (Nitrocefin, crude enzyme). The class given is biochemical. The note with it: Nitrocefin 100 μM. The method, then:
(§3) Absorbance was measured at 485 nm by UV-spectrophotometer. The IC50 was calculated by plotting absorbance against concentration through Sigmoidal dose response curve using Graph Pad software.

Test [5] has as its target Class A beta-lactamase SHV 18 (K. pneumoniae ATCC 700603) (Klebsiella pneumoniae, UniProt P0AD64). Described as above. The class given is biochemical. Here is the method:
as §3

For test [6], the target named is T1, Class D beta-lactamase OXA 23 (A baumannii NCTC 13301) (Acinetobacter baumannii, UniProt Q9L4P2).
T1 construct: preincubated mixture of crude enzyme and the compounds; endogenous in cells; host or cells: A. baumannii NCTC 13301 (crude enzyme preparation)
The description is as above. In kind it is biochemical. The note with it: A baumannii NCTC 13301 (OXA 23), Nitrocefin 100 μM. Here is the method: as §3

The test system of test [7] is E. coli NCTC 13353 (CTX-M15, OXA-1). Description: Agar dilution MIC (CLSI), compound alone. The class given is cell-based. Here is the method:
as §2

The subject of test [8] is K. pneumoniae H521 (KPC, SHV, TEM). Description: Agar dilution MIC (CLSI), compound alone. The class given is cell-based. The method, then: as §2
Test [9] has as its system Multi Drug Resistant (MDR) Gram-negative bacterial strains. The experiment in a line: Antibacterial activity alone. In kind it is cell-based. The note with it: compounds used alone; compared with standards (imipenem, ceftazidime) or avibactam. Here is the method: as §2
For the next test, the system named is E. coli NCTC 13351. The experiment in a line: Agar dilution MIC (CLSI), compound alone. In kind it is cell-based. The note with it: Escherichia coli, NCTC13351. Here is the method: as §2
Another test deals with P. aeruginosa ATCC 27853. Description: Agar dilution MIC (CLSI), compound alone. The settings on record: Pseudomonas aeruginosa, ATCC27853. In kind it is cell-based. The method, then:
as §2

Another test has as its system K. pneumoniae H 525. Description: Agar dilution MIC (CLSI), compound alone. The settings on record: Klebsiella pneumoniae, H525. The class given is cell-based. The method, then: as §2
The next test relates to E. coli NCTC 13352. The experiment in a line: Agar dilution MIC (CLSI), compound alone. In kind it is cell-based. The note with it: Escherichia coli, NCTC13352. The method, then: as §2
Test [10] deals with E. coli M 50. Description: Agar dilution MIC (CLSI), compound alone. In kind it is cell-based. The settings on record: Escherichia coli, M50. Here is the method: as §2
For another test, the system named is K. pneumoniae B 77. Description: Agar dilution MIC (CLSI), compound alone. The class given is cell-based. The settings on record: Klebsiella pneumoniae, B77. Here is the method: as §2
The subject of a further test is E. coli M 49. Description: Agar dilution MIC (CLSI), compound alone. In kind it is cell-based. The settings on record: Escherichia coli, M49. The method, then:
as §2

The subject of the next test is P. aeruginosa 2779. Description: Agar dilution MIC (CLSI), compound alone. The settings on record: Pseudomonas aeruginosa. In kind it is cell-based. Here is the method:
as §2

A further test has as its system P. aeruginosa PAO1. The experiment in a line: Agar dilution MIC (CLSI), compound alone. The class given is cell-based. The settings on record: Pseudomonas aeruginosa. The method, then: as §2
The next test concerns E. coli 7 MP. The experiment in a line: Agar dilution MIC (CLSI), compound alone. The class given is cell-based. The settings on record: Escherichia coli. Here is the method:
as §2

The test system of a further test is C. frundaii 58 MP. Description: Agar dilution MIC (CLSI), compound alone. In kind it is cell-based. Here is the method: as §2
The next test deals with E. cloacae M 20. Description: Agar dilution MIC (CLSI), compound alone. In kind it is cell-based. The note with it: Enterobacter cloacae, M20. Here is the method:
as §2

For a further test, the system named is P. aeruginosa R 20. The experiment in a line: Agar dilution MIC (CLSI), compound alone. In kind it is cell-based. The note with it: Pseudomonas aeruginosa, R20. The method, then:
as §2

A further test deals with K. pneumoniae S 21. The experiment in a line: Agar dilution MIC (CLSI), compound alone. In kind it is cell-based. The note with it: Klebsiella pneumoniae, S21. The method, then:
as §2

[11] abbreviates: Ceftazidime + compound fixed at 4 mcg/ml.

T1 sequence (Q9L4P2 18-273): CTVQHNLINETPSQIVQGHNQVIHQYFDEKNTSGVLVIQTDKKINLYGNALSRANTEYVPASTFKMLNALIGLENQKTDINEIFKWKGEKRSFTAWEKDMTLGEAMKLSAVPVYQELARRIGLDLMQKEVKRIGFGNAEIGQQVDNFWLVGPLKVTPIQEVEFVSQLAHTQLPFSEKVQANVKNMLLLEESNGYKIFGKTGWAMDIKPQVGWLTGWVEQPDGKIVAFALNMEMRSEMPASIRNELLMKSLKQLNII
Class A beta-lactamase SHV 18 (K. pneumoniae ATCC 700603), sequence (P0AD64 22-286 limits assumed): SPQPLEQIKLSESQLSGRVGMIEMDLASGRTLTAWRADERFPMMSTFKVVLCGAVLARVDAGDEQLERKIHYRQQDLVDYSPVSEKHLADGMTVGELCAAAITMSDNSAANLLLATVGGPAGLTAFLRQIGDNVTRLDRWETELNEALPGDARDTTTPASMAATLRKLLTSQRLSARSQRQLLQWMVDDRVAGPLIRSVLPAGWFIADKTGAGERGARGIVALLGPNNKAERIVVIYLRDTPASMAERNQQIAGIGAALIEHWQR

As for `CC(C)(O/N=C(\C(=O)N[C@@H]1C(=O)N2C(C(=O)[O-])=C(C[n+]3ccccc3)CS[C@H]12)c1csc(N)n1)C(=O)O` [Ceftazidime, ceftazidime, reference compound], the MIC of Ceftazidime alone with K. pneumoniae H521 (Ceftazidime alone, Table 5) is over 32 µg/mL; with E. coli M 50 [1] (Ceftazidime alone, Table 5), over 32 µg/mL; with Citrobactor spp 58 MP (Ceftazidime alone, Table 5), 16 µg/mL; in test [2] (Ceftazidime alone, Table 5), 32 µg/mL; in the test with E. coli NCTC 13353 (Ceftazidime alone, Table 5), 32 µg/mL.

With `O=C1N2C[C@@H](CC[C@H]2c2nnc(CCc3ccccc3)o2)N1OS(=O)(=O)O` [Example 6, (2S,5R)-sulfuric acid mono-[2-(5-phenyl-ethyl-[1,3,4]-oxadiazol-2-yl)-7-oxo-1,6-diaza-bicyclo[3.2.1]oct-6-yl] ester], the minimal inhibitory concentration (MIC) in [3] (K. Pneomoniae S48 (NDM, SHV, TEM), compound alone, Table 2) was over 32 µg/mL; in [7] (E. coli NCTC 13353 (CTX-M15, OXA-1), compound alone, Table 2), over 32 µg/mL; in test [8] (K. pneumoniae H521 (KPC, SHV, TEM), compound alone, Table 2), over 32 µg/mL. Besides, the concentration for half-maximal inhibition (IC50) in [4] is 4 nM; in test [5] (K. pneumoniae ATCC 700603 (SHV 18), Nitrocefin 100 μM, read-out: Beta-lactamase enzyme inhibition IC50), 32 nM; in [6], 220 nM. For the same compound, the MIC of Ceftazidime in combination with the compound in the test on K. pneumoniae H521 (setting [11]) is over 32 µg/mL; with E. coli M 50 [1] (setting [11]), 8 µg/mL; with Citrobactor spp 58 MP (setting [11]), 4 µg/mL; in test [2] (setting [11]), 8 µg/mL; with E. coli NCTC 13353 (setting [11]), 0.5 µg/mL.

Take `O=C1N2C[C@@H](CC[C@H]2c2nnc(Cc3ccccc3)o2)N1OS(=O)(=O)O` [Example 5, (2S,5R)-sulfuric acid mono-[2-(5-benzyl-[1,3,4]-oxadiazol-2-yl)-7-oxo-1,6-diaza-bicyclo[3.2.1]oct-6-yl] ester]: the “Antibacterial activity (MIC values) in words” value in test [9] was “exhibited antibacterial activity in comparison to avibactam”. Besides, the MIC in test [3] (Klebsiella pneumoniae) is 8 µg/mL (≈ 21 µM); with E. coli NCTC 13351, 16 µg/mL (≈ 42.1 µM); in the test with P. aeruginosa ATCC 27853, over 32 µg/mL; against K. pneumoniae H 525, 16 µg/mL (≈ 42.1 µM); in the test with E. coli NCTC 13352 it was 16 µg/mL (≈ 42.1 µM); with E. coli M 50 [10], 16 µg/mL (≈ 42.1 µM). Moreover, the MIC is over 32 µg/mL against K. pneumoniae B 77; over 32 µg/mL in the test on E. coli M 49; over 32 µg/mL in the test with P. aeruginosa 2779; over 32 µg/mL against P. aeruginosa PAO1; 32 µg/mL (≈ 84.1 µM) against E. coli 7 MP; over 32 µg/mL with C. frundaii 58 MP. For the same compound, the MIC in test [7] (E. coli NCTC 13353, Table 3) is 8 µg/mL (≈ 21 µM); in test [7] (Escherichia coli, NCTC13353), 8 µg/mL (≈ 21 µM); in the test with E. cloacae M 20, over 32 µg/mL; in the test on P. aeruginosa R 20, over 32 µg/mL; in test [8] (K. pneumoniae H 521, Table 3) it was 32 µg/mL (≈ 84.1 µM); in test [8] (Klebsiella pneumoniae), 32 µg/mL (≈ 84.1 µM). In addition, the MIC in the test on K. pneumoniae S 21 was over 32 µg/mL. The half-inhibitory concentration (IC50) in test [4] came to 6 nM; in test [5] (read-out: Beta-lactamase enzyme inhibition IC50, K. pneumoniae ATCC 700603 (SHV 18), Nitrocefin 100 μM) it was 33 nM; in test [6], 280 nM.

As a reminder, the MIC is the least concentration at which growth counts as inhibited. By IC50 is commonly meant the concentration that inhibits the measured activity by half.
